In paper PMC7037546, “High Cell Selectivity and Bactericidal Mechanism of Symmetric Peptides Centered on D-Pro–Gly Pairs” (International Journal of Molecular Sciences, 2020):
In brackets after ≈: the same amount, converted by molar mass. Non-standard residues stand in square brackets, D forms with d. Residues, ends and D or L forms follow the SMILES beside them. No end group written: not given here.

How the values were obtained:
[1] = tested on: Escherichia coli ATCC25922; assay: microbe, parasite or virus in culture; settings: ATCC25922, 16 h
Method: (§1) The antimicrobial activity of the designed peptides was examined using the micro-dilution method described previously. The bacteria were cultured for 16 h in MHB at 37 °C, and the microbial suspension was diluted to a final concentration of 10^5 colony-forming units (CFU)/mL. Then, 50 µL of MHB containing different concentrations peptides (0.25–256 µM) was mixed with 50 µL of bacterial solution, and the mixture was added to a 96-well plate. […] The assays were performed three times.

E. coli K88 = settings: micro-dilution in MHB, 10^5 CFU/mL, 16 h, OD 492 nm, performed three times
Method: as §1

[2] = tested on: Enterococcus faecalis ATCC29212; settings: ATCC29212, 16 h
Method: as §1

Gram-negative bacteria = settings: 16 h
Method: as §1

[3] = tested on: Klebsiella pneumonia CMCC46117; settings: CMCC46117, 16 h
Method: as §1

[4] = tested on: Pseudomonas aeruginosa ATCC27853; settings: ATCC27853, 16 h
Method: as §1

S. aureus ATCC29213 = settings: ATCC29213, 16 h
Method: as §1

[5] = tested on: Salmonella Pullorum NCTC5776; settings: NCTC5776, 16 h
Method: as §1

[6] = tested on: Staphylococcus aureus ATCC25923; settings: ATCC25923, 16 h
Method: as §1

[7] = tested on: methicillin-resistant S. aureus ATCC43300; settings: ATCC43300, 16 h
Method: as §1

Gram-positive bacteria = assay: Geometric mean of MICs and therapeutic index, Gram (+); assay type: cell-based; settings: geometric mean over the Gram-positive strains of Table 2; 256 μM used when no activity at 128 μM
Method: as §1

RAW 264.7 cells = assay: Cytotoxicity, CCK-8 assay; assay type: cell-based, murine; settings: 64 μM peptide, 16 h, CCK-8, OD 450 nm
Method: (§2) The cytotoxicity was detected according to a CCK-8 assay as described previously. Briefly, RAW 264.7 and HEK293T cells were placed into 96-well plates at a density of 1.0–2.0 × 10^5, and then cultured for 16 h under conditions of 5% CO2. Then, two-fold diluted peptides in DMEM were added to the plates. After 16 h of culturing, CCK-8 (10%, v/v) was put into each well containing cell culture, and mixtures were cultured for 2 h. The cytotoxicity assay was examined by measuring the OD of the mixtures at 450 nm (Microplate reader, TECAN GENios F129004, Tecan, Salzburg, Austria). The assays were performed three times.

HEK293T cells = assay: Cytotoxicity, CCK-8 assay; assay type: cell-based, human; settings: 64 μM peptide, 16 h, CCK-8, OD 450 nm
Method: as §2

E. coli ATCC25922 [8] = assay type: cell-based, Escherichia coli; settings: for MIC after pH treatment, pH 4 / MIC after pH treatment, pH 6 / MIC after pH treatment, pH 8 / MIC after pH treatment, pH 10: ATCC25922, 1 h; for MIC after temperature treatment, 0 °C / MIC after temperature treatment, 37 °C / MIC after temperature treatment, 100 °C / MIC in the presence of FeCl3 / MIC in the presence of KCl / MIC in the presence of MgCl2 / MIC in the presence of NH4Cl / MIC in the presence of NaCl / MIC in the presence of ZnCl2 / MIC, Control / MIC, Control (pH 7): ATCC25922, 16 h
Method: as §1
The salt, temperature, and pH sensitivities of designed peptides were determined by MIC assay as described previously. For the salt sensitivity assay, peptides were diluted in deionized water containing different salts, and mixed with E. coli ATCC25922 (10^5 CFU/mL). The final physiological concentrations of different salts were as follows: 150 mM NaCl, 4.5 mM KCl, 6 μM NH4Cl, 1 mM MgCl2, 8 μM ZnCl2, and 4 μM FeCl3. For temperature sensitivity, peptides were cooled on ice for 10 min, and incubated at 37 °C and 100 °C for 30 min. For pH sensitivity, peptides were treated with different pH for 1 h. Briefly, peptides were diluted in deionized water, and the pH of the solution was adjusted to 4.0, 6.0, 8.0, and 10.0 with HCl or NaOH. The subsequent steps were the same as for the MIC measurements. These tests were performed three times.

E. coli ATCC25922 [9] = settings: ATCC25922, 16 h
Method: The combined antibacterial effect of peptides with other antibiotics was evaluated by checkerboard assay as described previously. […] Subsequently, each peptide at the same concentration was added to the longitudinal column of wells, and each antibiotic at the same concentration was added to the horizontal row of wells. A suspension at 10^5 CFU/mL was put into each well for 16 h at 37 °C. Each assay was performed three times.

Row | Compound | MIC [1] [µM] | MIC (E. coli K88) [µM] | MIC [2] [µM] | GM (geometric mean of MICs), Gram (−) (Gram-negative bacteria) [µM] | MIC [3] [µM] | MIC [4] [µM] | MIC (S. aureus ATCC29213) [µM] | MIC [5] [µM] | MIC [6] [µM] | MIC [7] [µM] | GM (geometric mean of MICs), Gram (+) (Gram-positive bacteria) [µM] | cell survival rate (RAW 264.7 cells) [%] | cell survival rate (HEK293T cells) [%] | MIC after pH treatment, pH 4 (E. coli ATCC25922 [8]) [µM] | MIC after pH treatment, pH 6 (E. coli ATCC25922 [8]) [µM] | MIC after pH treatment, pH 8 (E. coli ATCC25922 [8]) [µM] | MIC after pH treatment, pH 10 (E. coli ATCC25922 [8]) [µM] | MIC after temperature treatment, 0 °C (E. coli ATCC25922 [8]) [µM] | MIC after temperature treatment, 37 °C (E. coli ATCC25922 [8]) [µM] | MIC after temperature treatment, 100 °C (E. coli ATCC25922 [8]) [µM] | other results
1 | CC(C)C[C@H](NC(=O)[C@H](CC(C)C)NC(=O)[C@H](CCCNC(=N)N)NC(=O)[C@H](CC(C)C)NC(=O)[C@H](CC(C)C)NC(=O)[C@H](CCCNC(=N)N)NC(=O)[C@H](CCCNC(=N)N)NC(=O)CNC(=O)[C@H]1CCCN1C(=O)[C@H](CCCNC(=N)N)NC(=O)[C@H](CCCNC(=N)N)NC(=O)[C@H](CC(C)C)NC(=O)[C@H](CC(C)C)NC(=O)[C@H](CCCNC(=N)N)NC(=O)[C@H](CC(C)C)NC(=O)[C@@H](N)CC(C)C)C(N)=O [LRpG] (H-LLRLLRR[dP]GRRLLRLL-NH2) | 2 (≈ 4.03 µg/mL) | 2 (≈ 4.03 µg/mL) | 32 (≈ 64.4 µg/mL) | 3.5 | 4 (≈ 8.05 µg/mL) | 8 (≈ 16.1 µg/mL) | 16 (≈ 32.2 µg/mL) | 4 (≈ 8.05 µg/mL) | 16 (≈ 32.2 µg/mL) | 16 (≈ 32.2 µg/mL) | 19.0 | 92 | 93 | 2 | 2 | 2 | 4 | 2 (≈ 4.03 µg/mL) | 2 (≈ 4.03 µg/mL) | 2 (≈ 4.03 µg/mL) | MIC in the presence of FeCl3 (E. coli ATCC25922 [8]): 2 µM; MIC in the presence of KCl (E. coli ATCC25922 [8]): 2 µM; MIC in the presence of MgCl2 (E. coli ATCC25922 [8]): 2 µM; MIC in the presence of NH4Cl (E. coli ATCC25922 [8]): 2 µM; MIC in the presence of NaCl (E. coli ATCC25922 [8]): 8 µM; MIC in the presence of ZnCl2 (E. coli ATCC25922 [8]): 2 µM; MIC, Control (E. coli ATCC25922 [8]): 2 µM (≈ 4.03 µg/mL); MIC, Control (pH 7) (E. coli ATCC25922 [8]): 2 µM; FICI in combination with Cefotaxime (E. coli ATCC25922 [9]): 1; FICI in combination with Chloramphenicol (E. coli ATCC25922 [9]): 0.75; FICI in combination with Ciprofloxacin (E. coli ATCC25922 [9]): 0.625; FICI in combination with Streptomycin (E. coli ATCC25922 [9]): 0.5; FICI in combination with other conventional antibiotics (additive effect) (E. coli ATCC25922 [9]): 0.625-1
2 | IIRIIRRGGRRIIRII-NH2 [IRGG] | 8 | 16 | >128 | 21.1 | 32 | 32 | >128 | 32 | >128 | >128 | 256 | 95 | 96 | 16 | 8 | 8 | 16 | 8 | 8 | 8 | MIC in the presence of FeCl3 (E. coli ATCC25922 [8]): 8 µM; MIC in the presence of KCl (E. coli ATCC25922 [8]): 8 µM; MIC in the presence of MgCl2 (E. coli ATCC25922 [8]): 16 µM; MIC in the presence of NH4Cl (E. coli ATCC25922 [8]): 8 µM; MIC in the presence of NaCl (E. coli ATCC25922 [8]): 64 µM; MIC in the presence of ZnCl2 (E. coli ATCC25922 [8]): 16 µM; MIC, Control (E. coli ATCC25922 [8]): 8 µM; MIC, Control (pH 7) (E. coli ATCC25922 [8]): 8 µM
3 | LLRLLRRGGRRLLRLL-NH2 [LRGG] | 2 | 4 | 32 | 4.6 | 8 | 8 | 16 | 4 | 16 | 32 | 22.6 | 84 | 91 | 2 | 2 | 2 | 4 | 2 | 2 | 2 | MIC in the presence of FeCl3 (E. coli ATCC25922 [8]): 2 µM; MIC in the presence of KCl (E. coli ATCC25922 [8]): 2 µM; MIC in the presence of MgCl2 (E. coli ATCC25922 [8]): 4 µM; MIC in the presence of NH4Cl (E. coli ATCC25922 [8]): 2 µM; MIC in the presence of NaCl (E. coli ATCC25922 [8]): 8 µM; MIC in the presence of ZnCl2 (E. coli ATCC25922 [8]): 2 µM; MIC, Control (E. coli ATCC25922 [8]): 2 µM; MIC, Control (pH 7) (E. coli ATCC25922 [8]): 2 µM
